Measured values reported in patent US20080114007A1 (priority 2006, published 2008).

What follows are compounds tested against CSF-1R (Homo sapiens, UniProt P07333) (assay: Peptide (non-phosphorylated) assay, fluorescence polarization competition immunoassay). Conditions: 0.7 nM CSF-1R, 308 μM SYEGNSYTFIDPTQ peptide, 1 mM ATP, 80 min; mean of at least three determinations; read-out: c-fms Peptide IC50.
Format: biochemical
In short: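 Read-out is fluorescence polarization: after EDTA quench, anti-phosphotyrosine antibody plus PTK green tracer compete with the phosphorylated peptide for 30 min. The CSF-1R reaction itself ran 80 min at room temperature after ATP addition. DMSO (4%) wells served as controls, positive controls pre-treated with EDTA.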

CSF-1R, sequence (P07333 20-972): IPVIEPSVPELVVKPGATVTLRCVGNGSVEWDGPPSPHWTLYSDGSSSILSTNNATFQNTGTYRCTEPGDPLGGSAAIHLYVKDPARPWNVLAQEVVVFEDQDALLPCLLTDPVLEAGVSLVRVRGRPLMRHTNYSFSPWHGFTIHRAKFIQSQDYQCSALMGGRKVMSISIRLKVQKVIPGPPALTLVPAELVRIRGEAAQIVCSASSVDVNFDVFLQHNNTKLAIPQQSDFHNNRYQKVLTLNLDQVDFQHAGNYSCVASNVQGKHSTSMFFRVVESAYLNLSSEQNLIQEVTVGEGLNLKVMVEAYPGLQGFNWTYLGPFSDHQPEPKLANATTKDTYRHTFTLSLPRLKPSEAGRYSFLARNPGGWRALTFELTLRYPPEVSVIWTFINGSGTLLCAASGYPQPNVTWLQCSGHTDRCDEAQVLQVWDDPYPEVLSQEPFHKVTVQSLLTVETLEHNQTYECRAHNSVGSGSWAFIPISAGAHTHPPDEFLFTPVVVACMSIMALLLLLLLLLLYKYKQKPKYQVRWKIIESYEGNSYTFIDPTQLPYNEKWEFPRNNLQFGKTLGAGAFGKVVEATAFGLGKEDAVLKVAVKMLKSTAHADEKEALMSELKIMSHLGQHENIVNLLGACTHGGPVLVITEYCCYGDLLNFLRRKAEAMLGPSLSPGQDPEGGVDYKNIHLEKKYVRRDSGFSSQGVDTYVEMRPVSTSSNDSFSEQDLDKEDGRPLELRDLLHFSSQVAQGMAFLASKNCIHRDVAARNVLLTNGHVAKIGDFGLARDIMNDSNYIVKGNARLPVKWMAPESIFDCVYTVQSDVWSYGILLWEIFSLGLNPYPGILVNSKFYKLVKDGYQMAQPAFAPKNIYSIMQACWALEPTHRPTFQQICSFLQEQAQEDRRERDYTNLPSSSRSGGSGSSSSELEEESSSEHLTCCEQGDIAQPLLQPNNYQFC

| SMILES | IC50 |
| --- | --- |
| CONC(=O)c1cn(-c2ccc3c(c2)CCC3)c2nc(Nc3cccc(C4CCN(C(C)=O)CC4)c3)ncc2c1=O [Cpd 197, 2-[3-(1-acetyl-piperidin-4-yl)-phenylamino]-8-indan-5-yl-5-oxo-5,8-dihydro-pyrido[2,3-d]pyrimidine-6-carboxylic acid methoxy-amide] | 1.4 nM |
| CONC(=O)c1cn(-c2ccc3c(c2)CCC3)c2nc(Nc3cccc(C(=O)NCCN4CCOCC4)c3)ncc2c1=O [Cpd 198, 8-indan-5-yl-2-[3-(2-morpholin-4-yl-ethylcarbamoyl)-phenylamino]-5-oxo-5,8-dihydro-pyrido[2,3-d]pyrimidine-6-carboxylic acid methoxy-amide] | 4.2 nM |
| CONC(=O)c1cn(-c2ccc3c(c2)CCC3)c2nc(Nc3cccc(C(=O)NCCN(C)C)c3)ncc2c1=O [Cpd 199, 2-[3-(2-dimethylamino-ethylcarbamoyl)-phenylamino]-8-indan-5-yl-5-oxo-5,8-dihydro-pyrido[2,3-d]pyrimidine-6-carboxylic acid methoxy-amide] | 1.4 nM |
| CONC(=O)c1cn(-c2ccc3c(c2)CCC3)c2nc(Nc3cccc(CCN4CCN(C)CC4)c3)ncc2c1=O [Cpd 200, 8-indan-5-yl-2-{3-[2-(4-methyl-piperazin-1-yl)-ethyl]-phenylamino}-5-oxo-5,8-dihydro-pyrido[2,3-d]pyrimidine-6-carboxylic acid methoxy-amide] | 1.3 nM |
| CONC(=O)c1cn(-c2ccc3c(c2)CCC3)c2nc(Nc3cccc(N4CCN(S(C)(=O)=O)CC4)c3)ncc2c1=O [Cpd 201, 8-indan-5-yl-2-[3-(4-methanesulfonyl-piperazin-1-yl)-phenylamino]-5-oxo-5,8-dihydro-pyrido[2,3-d]pyrimidine-6-carboxylic acid methoxy-amide] | 1.8 nM |
| CONC(=O)c1cn(-c2ccc3c(c2)CCC3)c2nc(Nc3cccc(N4CCN(S(=O)(=O)C(F)(F)F)CC4)c3)ncc2c1=O [Cpd 202, 8-indan-5-yl-5-oxo-2-[3-(4-trifluoromethanesulfonyl-piperazin-1-yl)-phenylamino]-5,8-dihydro-pyrido[2,3-d]pyrimidine-6-carboxylic acid methoxy-amide] | 68 nM |
| CONC(=O)c1cn(-c2ccc3c(c2)CCC3)c2nc(Nc3cccc(CCN4CCN(S(C)(=O)=O)CC4)c3)ncc2c1=O [Cpd 203, 8-indan-5-yl-2-{3-[2-(4-methanesulfonyl-piperazin-1-yl)-ethyl]-phenylamino}-5-oxo-5,8-dihydro-pyrido[2,3-d]pyrimidine-6-carboxylic acid methoxy-amide] | 1.4 nM |
| CONC(=O)c1cn(-c2ccc3c(c2)CCC3)c2nc(Nc3cccc(CCN4CCN(C(C)=O)CC4)c3)ncc2c1=O [Cpd 204, 2-{3-[2-(4-acetyl-piperazin-1-yl)-ethyl]-phenylamino}-8-indan-5-yl-5-oxo-5,8-dihydro-pyrido[2,3-d]pyrimidine-6-carboxylic acid methoxy-amide] | 1.2 nM |
| CONC(=O)c1cn(-c2ccc3c(c2)CCC3)c2nc(Nc3cccc(CCN4CCS(=O)(=O)CC4)c3)ncc2c1=O [Cpd 205, 2-{3-[2-(1,1-dioxo-1λ^6-thiomorpholin-4-yl)-ethyl]-phenylamino}-8-indan-5-yl-5-oxo-5,8-dihydro-pyrido[2,3-d]pyrimidine-6-carboxylic acid methoxy-amide] | 1 nM |
| CONC(=O)c1cn(-c2ccc3c(c2)CCC3)c2nc(Nc3ccc(CCN4CCS(=O)(=O)CC4)cc3)ncc2c1=O [Cpd 206, 2-{4-[2-(1,1-dioxo-1λ^6-thiomorpholin-4-yl)-ethyl]-phenylamino}-8-indan-5-yl-5-oxo-5,8-dihydro-pyrido[2,3-d]pyrimidine-6-carboxylic acid methoxy-amide] | 1.2 nM |
| CCc1ccc(-n2cc(C(=O)NOC)c(=O)c3cnc(Nc4ccc(C5CCN(CCOC)CC5)cc4)nc32)cc1 [Cpd 207, 8-(4-ethyl-phenyl)-2-{4-[1-(2-methoxy-ethyl)-piperidin-4-yl]-phenylamino}-5-oxo-5,8-dihydro-pyrido[2,3-d]pyrimidine-6-carboxylic acid methoxy-amide] | 0.3 nM |
| CCN1CCC(c2ccc(Nc3ncc4c(=O)c(C(=O)NOC)cn(C5CCC(C)(C)CC5)c4n3)cc2)CC1 [Cpd 208, 8-(4,4-dimethyl-cyclohexyl)-2-[4-(1-ethyl-piperidin-4-yl)-phenylamino]-5-oxo-5,8-dihydro-pyrido[2,3-d]pyrimidine-6-carboxylic acid methoxy-amide] | 0.4 nM |
| CONC(=O)c1cn(C2CCC(C)(C)CC2)c2nc(Nc3ccc(C4CCN(CCO)CC4)cc3)ncc2c1=O [Cpd 210, 8-(4,4-dimethyl-cyclohexyl)-2-{4-[1-(2-hydroxy-ethyl)-piperidin-4-yl]-phenylamino}-5-oxo-5,8-dihydro-pyrido[2,3-d]pyrimidine-6-carboxylic acid methoxy-amide] | 0.25 nM |
| CCc1cccc(-n2cc(C(=O)NOC)c(=O)c3cnc(Nc4ccc(C5CCN(C)CC5)cc4)nc32)c1 [Cpd 212, 8-(3-ethyl-phenyl)-2-[4-(1-methyl-piperidin-4-yl)-phenylamino]-5-oxo-5,8-dihydro-pyrido[2,3-d]pyrimidine-6-carboxylic acid methoxy-amide] | 0.36 nM |
| CCc1ccc(-n2cc(C(=O)NOC)c(=O)c3cnc(Nc4ccc(NCCCOC)cc4)nc32)cc1 [Cpd 213, 8-(4-ethyl-phenyl)-2-[4-(3-methoxy-propylamino)-phenylamino]-5-oxo-5,8-dihydro-pyrido[2,3-d]pyrimidine-6-carboxylic acid methoxy-amide] | 1.1 nM |
| CONC(=O)c1cn(-c2ccc3c(c2)CCC3)c2nc(Nc3ccc(C(=O)NS(C)(=O)=O)cc3)ncc2c1=O [Cpd 214, 8-indan-5-yl-2-(4-methanesulfonylaminocarbonyl-phenylamino)-5-oxo-5,8-dihydro-pyrido[2,3-d]pyrimidine-6-carboxylic acid methoxy-amide] | 1.6 nM |
| CCc1ccc(-n2cc(C(=O)NOC)c(=O)c3cnc(Nc4cccc(OCCOC)c4)nc32)cc1 [Cpd 215, 8-(4-ethyl-phenyl)-2-[3-(2-methoxy-ethoxy)-phenylamino]-5-oxo-5,8-dihydro-pyrido[2,3-d]pyrimidine-6-carboxylic acid methoxy-amide] | 1 nM |
| CCc1ccc(-n2cc(C(=O)NOC)c(=O)c3cnc(Nc4cccc(OCCCOC)c4)nc32)cc1 [Cpd 216, 8-(4-ethyl-phenyl)-2-[3-(3-methoxy-propoxy)-phenylamino]-5-oxo-5,8-dihydro-pyrido[2,3-d]pyrimidine-6-carboxylic acid methoxy-amide] | 1.6 nM |
| CCc1ccc(-n2cc(C(=O)NOC)c(=O)c3cnc(Nc4ccc(NCCS(C)(=O)=O)cc4)nc32)cc1 [Cpd 217, 8-(4-ethyl-phenyl)-2-[4-(2-methanesulfonyl-ethylamino)-phenylamino]-5-oxo-5,8-dihydro-pyrido[2,3-d]pyrimidine-6-carboxylic acid methoxy-amide] | 0.62 nM |
| CCOC(=O)CN1CCC(c2ccc(Nc3ncc4c(=O)c(C(=O)NOC)cn(-c5ccc6c(c5)CCC6)c4n3)cc2)CC1 [Cpd 218, {4-[4-(8-indan-5-yl-6-methoxycarbamoyl-5-oxo-5,8-dihydro-pyrido[2,3-d]pyrimidin-2-ylamino)-phenyl]-piperidin-1-yl}-acetic acid ethyl ester] | 1.2 nM |
| CONC(=O)c1cn(-c2ccc3c(c2)CCC3)c2nc(Nc3ccc(C4CCN(CC(=O)O)CC4)cc3)ncc2c1=O [Cpd 219, {4-[4-(8-indan-5-yl-6-methoxycarbamoyl-5-oxo-5,8-dihydro-pyrido[2,3-d]pyrimidin-2-ylamino)-phenyl]-piperidin-1-yl}-acetic acid] | 2.2 nM |
| CONC(=O)c1cn(-c2ccc3c(c2)CCC3)c2nc(Nc3ccc(CCN4CCN(C)C(=O)C4)cc3)ncc2c1=O [Cpd 220, 8-indan-5-yl-2-{4-[2-(4-methyl-3-oxo-piperazin-1-yl)-ethyl]-phenylamino}-5-oxo-5,8-dihydro-pyrido[2,3-d]pyrimidine-6-carboxylic acid methoxy-amide] | 0.75 nM |
| CCc1ccc(-n2cc(C(=O)NOC)c(=O)c3cnc(Nc4ccc(CCN5CCN(C)C(=O)C5)cc4)nc32)cc1 [Cpd 221, 8-(4-ethyl-phenyl)-2-{4-[2-(4-methyl-3-oxo-piperazin-1-yl)-ethyl]-phenylamino}-5-oxo-5,8-dihydro-pyrido[2,3-d]pyrimidine-6-carboxylic acid methoxy-amide] | 0.87 nM |
| CN1CCC(c2ccc(Nc3ncc4c(=O)c(C(=O)O)cn(-c5ccc6c(c5)CCC6)c4n3)cc2)CC1 [Cpd 222, 8-indan-5-yl-2-[4-(1-methyl-piperidin-4-yl)-phenylamino]-5-oxo-5,8-dihydro-pyrido[2,3-d]pyrimidine-6-carboxylic acid] | 29 nM |
| CCc1ccc(-n2cc(C(=O)NOC)c(=O)c3cnc(Nc4ccc(CCN5CCNC(=O)C5)cc4)nc32)cc1 [Cpd 224, 8-(4-ethyl-phenyl)-5-oxo-2-{4-[2-(3-oxo-piperazin-1-yl)-ethyl]-phenylamino}-5,8-dihydro-pyrido[2,3-d]pyrimidine-6-carboxylic acid methoxy-amide] | 0.58 nM |
| CONC(=O)c1cn(-c2cnc3c(c2)CCC3)c2nc(Nc3ccc(C4CCN(C)CC4)cc3)ncc2c1=O [Cpd 225, 8-(6,7-dihydro-5H-[1]pyrindin-3-yl)-2-[4-(1-methyl-piperidin-4-yl)-phenylamino]-5-oxo-5,8-dihydro-pyrido[2,3-d]pyrimidine-6-carboxylic acid methoxy-amide] | 7 nM |

Same assay, conditions: c-fms Peptide IC50, 0.7 nM CSF-1R, 308 μM SYEGNSYTFIDPTQ peptide, 1 mM ATP, 80 min; mean of at least three determinations

| SMILES | IC50 |
| --- | --- |
| CONC(=O)c1cn(C2CCC(C)(C)CC2)c2nc(Nc3ccc(C4CCN(C)CC4)cc3)ncc2c1=O [Cpd 209, 8-(4,4-dimethyl-cyclohexyl)-2-[4-(1-methyl-piperidin-4-yl)-phenylamino]-5-oxo-5,8-dihydro-pyrido[2,3-d]pyrimidine-6-carboxylic acid methoxy-amide] | 0.4 nM |
